Results taken from patent US20060069132A1, “Azolecarboxamide herbicides” (priority 2004, published 2006).

Assays:
[1] = tested on: giant foxtail; test: Test C pre-/postemergence herbicide test; format: in vivo, Setaria faberi; settings: preemergence; for Plant response rating (0 = no effect, 100 = complete control), Foxtail, Giant: 125 g ai/ha
Method in brief: (§1)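 Greenhouse-grown plants were evaluated visually 12 to 14 days after treatment, with 100 meaning complete control and 0 no effect. Application was preemergence, or postemergence at 2 to 18 cm.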

[2] = tested on: bermudagrass; test: Test C pre-/postemergence herbicide test; format: in vivo, Cynodon dactylon; settings: preemergence; for Plant response rating (0 = no effect, 100 = complete control), Bermudagrass: 125 g ai/ha
Method in brief: as §1

[3] = tested on: morningglory; test: Test C pre-/postemergence herbicide test; format: in vivo, Ipomoea coccinea; parameters: key to Plant response rating, Morningglory: 0 = no effect, 100 = complete control; settings: preemergence; for Plant response rating (0 = no effect, 100 = complete control), Morningglory: 125 g ai/ha
Method in brief: as §1

[4] = tested on: large crabgrass; test: Test C pre-/postemergence herbicide test; format: in vivo, Digitaria sanguinalis; settings: preemergence; for Plant response rating (0 = no effect, 100 = complete control), Crabgrass, Large: 125 g ai/ha
Method in brief: as §1

[5] = tested on: smallflower umbrella sedge; test: Test C flooded paddy test; format: in vivo, Cyperus difformis; settings: for Plant response rating, Sedge, Umbrella: 500 g ai/ha, visual rating after 12 to 14 days
[6] = tested on: velvetleaf; test: Test C pre-/postemergence herbicide test; format: in vivo, Abutilon theophrasti; settings: preemergence; for Plant response rating (0 = no effect, 100 = complete control), Velvetleaf: 125 g ai/ha
Method in brief: as §1

[7] = tested on: rice; test: Test C flooded paddy test; format: in vivo, Oryza sativa; settings: for Plant response rating, Rice: 500 g ai/ha, visual rating after 12 to 14 days
Method in brief: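 Plants were grown to the 1- to 4-leaf stage (2–18 cm) and then treated postemergence, or grown to the 2-leaf stage for the flooded paddy test. They were held in a greenhouse for 12 to 14 days and then scored by eye against controls, where 0 is no effect and 100 is complete control.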

[8] = tested on: common ragweed; test: Test C pre-/postemergence herbicide test; format: in vivo, Ambrosia elatior; parameters: key to Plant response rating, Ragweed: 0 = no effect, 100 = complete control; settings: preemergence; for Plant response rating (0 = no effect, 100 = complete control), Ragweed: 125 g ai/ha
Method in brief: as §1

[9] = tested on: lambsquarters; test: Test C pre-/postemergence herbicide test; format: in vivo, Chenopodium album; settings: preemergence; for Plant response rating (0 = no effect, 100 = complete control), Lambsquarters: 125 g ai/ha
Method in brief: as §1

[10] = 500 g ai/ha, scale 0 to 100 (0 no effect, 100 complete control), visual, 12 to 14 days
[11] = 62 g ai/ha, scale 0 to 100, 0 no effect, 100 complete control
[12] = 125 g ai/ha, scale 0 to 100 (0 no effect, 100 complete control)
[13] = 250 g ai/ha, scale of 0 to 100, 0 is no effect, 100 is complete control
[14] = scale 0 to 100 (0 no effect, 100 complete control)

| SMILES | Plant response rating, Foxtail, Giant ([1]; 62 g ai/ha, scale 0 to 100) | Plant response rating (0 = no effect, 100 = complete control), Foxtail, Giant [1] | Plant response rating, Foxtail, Giant ([1]; 250 g ai/ha, scale 0-100) | Plant response rating, Foxtail, Giant [1, 10] | Plant response rating, Bermudagrass [2, 11] | Plant response rating (0 = no effect, 100 = complete control), Bermudagrass [2] | Plant response rating, Bermudagrass ([2]; 250 g ai/ha, scale 0-100) | Plant response rating, Bermudagrass [2, 10] | Plant response rating, Morningglory ([3]; 62 g ai/ha, scale 0 to 100) | Plant response rating, Crabgrass, Large ([4]; 62 g ai/ha, scale 0 to 100) | Plant response rating (0 = no effect, 100 = complete control), Crabgrass, Large [4] | Plant response rating, Crabgrass, Large ([4]; 250 g ai/ha, scale 0-100) | Plant response rating, Crabgrass, Large [4, 10] | Sedge, Umbrella plant response rating ([5]; 62 g ai/ha, scale 0 to 100) | Sedge, Umbrella plant response rating [5, 12] | Sedge, Umbrella plant response rating [5, 13] | Plant response rating, Sedge, Umbrella [5, 14] | Plant response rating, Velvetleaf ([6]; 62 g ai/ha, scale 0 to 100) | Plant response rating (0 = no effect, 100 = complete control), Velvetleaf [6] | Plant response rating, Velvetleaf ([6]; 250 g ai/ha, scale 0-100) | further results |
| --- | --- | --- | --- | --- | --- | --- | --- | --- | --- | --- | --- | --- | --- | --- | --- | --- | --- | --- | --- | --- | --- |
| CCc1nn(C(C)(C)C)nc1C(=O)Nc1cccc(C(=S)N(C)C)c1 [Compound 395] | 95 | 100 | 100 | 100 | 95 | 100 | 100 | 100 | 15 | 100 | 100 | 100 | 100 | 70 | 80 | 85 | 85 | 95 | 100 | 100 | Plant response rating (0 = no effect, 100 = complete control), Morningglory [3]: 80; Plant response rating, Morningglory ([3]; 250 g ai/ha, scale 0-100): 100; Plant response rating, Morningglory [3, 10]: 100; Plant response rating, Velvetleaf [6, 10]: 100; Rice plant response rating ([7]; 62 g ai/ha, scale 0 to 100): 70; Rice plant response rating [7, 12]: 70; Rice plant response rating [7, 13]: 70; Plant response rating, Rice [7, 14]: 75; Plant response rating, Ragweed ([8]; 62 g ai/ha, scale 0 to 100): 65; Plant response rating (0 = no effect, 100 = complete control), Ragweed [8]: 95; Plant response rating, Ragweed ([8]; 250 g ai/ha, scale 0-100): 100; Plant response rating, Ragweed [8, 10]: 100; Plant response rating, Lambsquarters ([9]; 62 g ai/ha, scale 0 to 100): 100; Plant response rating (0 = no effect, 100 = complete control), Lambsquarters [9]: 100; Plant response rating, Lambsquarters ([9]; 250 g ai/ha, scale 0-100): 100; Plant response rating, Lambsquarters [9, 10]: 100 |
| Cc1nn(C(C)(C)C)nc1C(=O)Nc1cccc(C(=O)N2CC=CC2)c1 [Compound 393] | 70 | 90 | 95 | 100 | 60 | 100 | 100 | 100 | 60 | 95 | 100 | 100 | 100 | 70 | 75 | 80 | 85 | 65 | 100 | 100 | Plant response rating, Velvetleaf [6, 10]: 100; Rice plant response rating ([7]; 62 g ai/ha, scale 0 to 100): 45; Rice plant response rating [7, 12]: 75; Rice plant response rating [7, 13]: 80; Plant response rating, Rice [7, 14]: 85; Plant response rating, Ragweed ([8]; 62 g ai/ha, scale 0 to 100): 20; Plant response rating (0 = no effect, 100 = complete control), Ragweed [8]: 100; Plant response rating, Ragweed ([8]; 250 g ai/ha, scale 0-100): 100; Plant response rating, Ragweed [8, 10]: 100; Plant response rating, Lambsquarters ([9]; 62 g ai/ha, scale 0 to 100): 100; Plant response rating (0 = no effect, 100 = complete control), Lambsquarters [9]: 100; Plant response rating, Lambsquarters ([9]; 250 g ai/ha, scale 0-100): 100; Plant response rating, Lambsquarters [9, 10]: 100 |
| CCc1nn(C(C)(C)C)nc1C(=S)Nc1cccc(C(=S)N(C)C)c1 [Compound 396] | 95 | 100 | 100 | 100 | 95 | 100 | 100 | 100 | 0 | 100 | 100 | 100 | 100 | 70 | 75 | 85 | 90 | 0 | 45 | 100 | Plant response rating (0 = no effect, 100 = complete control), Morningglory [3]: 0; Plant response rating, Morningglory ([3]; 250 g ai/ha, scale 0-100): 25; Plant response rating, Morningglory [3, 10]: 70; Plant response rating, Velvetleaf [6, 10]: 100; Rice plant response rating ([7]; 62 g ai/ha, scale 0 to 100): 60; Rice plant response rating [7, 12]: 70; Rice plant response rating [7, 13]: 75; Plant response rating, Rice [7, 14]: 80; Plant response rating, Ragweed ([8]; 62 g ai/ha, scale 0 to 100): 0; Plant response rating (0 = no effect, 100 = complete control), Ragweed [8]: 0; Plant response rating, Ragweed ([8]; 250 g ai/ha, scale 0-100): 80; Plant response rating, Ragweed [8, 10]: 95; Plant response rating, Lambsquarters ([9]; 62 g ai/ha, scale 0 to 100): 100; Plant response rating (0 = no effect, 100 = complete control), Lambsquarters [9]: 100; Plant response rating, Lambsquarters ([9]; 250 g ai/ha, scale 0-100): 100; Plant response rating, Lambsquarters [9, 10]: 100 |
